The source of these data is patent US9518038B2, “Condensation product of theanine derivative and carboxylic acid coumarin derivative, its intermediate, preparation method and use thereof” (SHANDONG YINGDONG YINGHAO BIOTECHNOLOGY, INC., priority 2012, dated 2016).

The subject of assay [1] is human pancreatic cancer cells BxPC3. In words: MTT growth inhibition, BxPc3 cells. Format: cell-based. The note with it: Homo sapiens, BXPC-3, 72 h after treatment, read-out: Drug concentration (IC50) at which 50% cancer cells survived. From the text: (§1) Cell lines and cell culture: human lung cancer cells A549 and H460, human breast cancer cells MCF-7 and MDA-MB-231, human gastric cancer cells BGC-823, human prostate cancer cells PC-3, human chronic leukemia cells K562, human lymphoma cells U937, human liver cancer cells SMMC7721 and HepG2, human colon cancer cells HT29, human pancreatic cancer cells PANC-1 and BxPC3, human cervical cancer Hela cell lines, human brain tumor cells Daoy, human neuroma cells D54 and human oral epidermoid cancer cells KBV200 line with strong drug resistance, mouse melanoma cells B16, and highly metastatic Lewis lung cancer cell lines were purchased from American Type Culture Collection of the U.S. These cells were cultured with DMEM and RPMI-1640 culture solutions separately.
(§2) The procedure was as follows:
(§3) (1) 0.25% trypsin was used to digest cancer cells in a logarithmic growth phase to prepare a single-cell suspension, the concentration of cells was adjusted to 5×10^4/mL, and the adjusted suspension was inoculated into a 96-well culture plate with 100 μl per well;
(§4) (2) The culture plate was transferred into a 37° C. incubator with a saturated humidity and 5% of CO2 and cultured for 24 h; the compounds and the intermediates thereof obtained in embodiments 1-7 and the compound as represented by formula (IIIa) or the positive control anti-cancer drug with the concentration of 1-1000 μM/L were added to enable the final concentration to be 0.1-1500 μM/L. Control wells (only added with 200 μl of cell suspension) and drug-free blank control wells (containing the solvent of 0.01% DMSO) were set, each group included 8 wells, and the plate was placed into the 37° C. incubator with saturated humidity and 5% of CO2 for culturing;
(§5) (3) The 96-well plate was taken out at 48 h and 72 h after dosing, the original culture medium was carefully removed by suction, 100 μl of serum-free DMEM culture medium and 10 μl of MTT (5 mg/mL) solution were added in each well. The plate was continuously cultured for another 4 h and then the culture was terminated;
(§6) (4) The supernatant in the wells was carefully removed by suction, each well was added with 150 μl of DMSO and shaked at room temperature for 10-15 min to fully dissolve crystals.
(§7) (5) Colorimetric analysis: the wavelength was selected as 570 nm, the light absorbance (A value) of each well was determined on the microplate reader and the results were recorded; the experiment was repeated for three times;
(§8) (6) the experimental results were calculated according to the following formula: relative survival rate=(A value of each experimental group/A value of cell control group)×100%
(§9) Calculation of median-effect concentration (IC50, namely the drug concentration at which the inhibition rate is 50%, also known as half inhibitory concentration):
(§10) IC50 of the detected component was calculated by using a regression equation.

The test system of assay [2] is human pancreatic cancer cells PANC-1 xenograft. In words: In-vivo growth of PANC-1 xenografts in nude mice. The arrangement: species or system BALB/c nude mice. Conditions: Mus musculus, ip, vs DMSO solvent control, read-out: Curative effect (inhibition rate %) of tumor weight; for inhibition in vivo at 60 mg/kg: 60 mg/kg intraperitoneal once a day; for inhibition in vivo at 90 mg/kg: 90 mg/kg intraperitoneal once a day. On the procedure: (§11) RPMI1640 and DMEM culture solutions: Hyclone Company; inactivated fetal bovine serum: Hyclone Company, preserved at −20° C.; trypsin: Amersco Company; and 0.4% trypan blue: Sigma Company;
(§12) (3) Observation of growth of tumors in nude mice: the activities (including food intake, traits of urine and stool, mental state and the like) of the nude mice and the tumor growth time and growth situation of the transplanted tumors were observed every day, the body weight and the size of the tumors were measured once every 2-3 days. The long diameter a and the short diameter b (mm) of each tumor were measured by a vernier caliper to calculate the volume, wherein the volume V=π1/2·ab^2 (mm^3);
(§13) (4) sacrifice of animals: the mice were anesthetized and photoed after treatment experiments; the nude mice were sacrificed by breaking neck, the tumor tissues were stripped under sterile conditions and the weight of the tumors was weighed; and the effects of the drugs on pathology and toxicity of the various organs and tissues were detected.

Assay [3] relates to human pancreatic cancer cells PANC-1. The assay can be described thus: MTT growth inhibition, PANC-1 cells. Format: cell-based. Conditions: 72 h after treatment, read-out: Drug concentration (IC50) at which 50% cancer cells survived.
Text: as §1, §2, §3, §4, §5, §6, §7, §8, §9, §10

The test system of assay [4] is human cervical cancer cells Hela xenograft. In words: In-vivo growth of Hela xenografts in nude mice. The arrangement: species or system BALB/c nude mice. Conditions: Mus musculus, ip, vs DMSO solvent control, read-out: Curative effect (inhibition rate %) of tumor weight; for inhibition in vivo at 60 mg/kg: 60 mg/kg intraperitoneal once a day; for inhibition in vivo at 90 mg/kg: 90 mg/kg intraperitoneal once a day. On the procedure: as §11, §12, §13

The test system of a further assay is K-Ras. The assay can be described thus: Western Blotting, K-Ras level. Format: cell-based. The note with it: human liver cancer cells, Lewis lung cancer cells and other cancer cell lines and tumor tissues, read-out: Effective concentration (IC50) for inhibition of K-Ras. The text has this:
(§14) Antibodies: primary antibodies of VEGFR, EGFR, c-Met, K-Ras, H-Ras, Akt, NF-κB, Cyclin D1, ER-alpha, Dvl-1, Dvl-2, Dvl-3, MMP-9, MMP2, β-catenin, Bcl-2, Bax, p53, p21, E-cadherin and Caspase3 protein, purchased from American Cell Signaling Technology Company and Santa Cruz Technology Company; and H3 acetylation, H4 acetylation and HDAC (HDAC3, HDAC4 and the like) Antibody Sample Kits, purchased from Cell Signaling Technology Company of the U.S.
(§15) (3) polyacrylamide gel electrophoresis (SDS-PAGE): an equal amount of protein lysate sample was used to separate protein, film transfer, and blocking, treated with appropriate primary antibodies and secondary antibodies in sequence, and the film was washed, then the color was developed with ECL kit, and a blot protein band was detected by exposure of an X-ray film; and a Gel-Pro Analyzer was used for quantitative analysis of gray degree, optical density value of the control group and the drug treatment group in various concentration were respectively compared with that of internal reference, the obtained ratios were respectively compared with the control group, and the protein expression level was semi-quantified.
In general terms: Immunoblotting shows a protein as a band on a membrane.

The test system of the next assay is Dvl-1. In words: Western Blotting, Dvl-1 level. Format: cell-based. Conditions: human liver cancer cells, Lewis lung cancer cells and other cancer cell lines and tumor tissues, read-out: Effective concentration (IC50) for inhibition of Dvl-1.
Text: as §14, §15

A further assay deals with NF-κB. In words: Western Blotting, NF-κB level. Format: cell-based. The note with it: human liver cancer cells, Lewis lung cancer cells and other cancer cell lines and tumor tissues, read-out: Effective concentration (IC50) for inhibition of NF-κB.
Text: as §14, §15

The subject of the next assay is HDAC4. The assay can be described thus: HDAC4 enzyme activity in nuclear extracts of human tumor xenografts of treated mice. Conditions: second value of the pair HDAC3 and HDAC4, SAHA 25 mg/kg. In general terms: In xenograft studies the graft and the host belong to different species.
The target in the next assay is T1, EZH2 (Homo sapiens, UniProt Q15910).
T1 construct: the EZH2 enzyme was replaced with tumor protein extracts in each group; from tissue; host or cells: human tumour xenografts excised from treated nude mice
In words: EZH2 enzyme activity in protein extracts of human tumor xenografts of treated mice (EZH2 Assay Kit). Format: in vivo. Conditions: tumors excised 6 h after medication, SAHA 25 mg/kg.

The test system of a further assay is Nuclear β-catenin. In words: Western Blotting, nuclear β-catenin level. Format: cell-based. The note with it: human liver cancer cells, Lewis lung cancer cells and other cancer cell lines and tumor tissues, read-out: Effective concentration (IC50) for inhibition of Nuclear β-catenin.
Text: as §14, §15

T1 sequence (Q15910 whole entry): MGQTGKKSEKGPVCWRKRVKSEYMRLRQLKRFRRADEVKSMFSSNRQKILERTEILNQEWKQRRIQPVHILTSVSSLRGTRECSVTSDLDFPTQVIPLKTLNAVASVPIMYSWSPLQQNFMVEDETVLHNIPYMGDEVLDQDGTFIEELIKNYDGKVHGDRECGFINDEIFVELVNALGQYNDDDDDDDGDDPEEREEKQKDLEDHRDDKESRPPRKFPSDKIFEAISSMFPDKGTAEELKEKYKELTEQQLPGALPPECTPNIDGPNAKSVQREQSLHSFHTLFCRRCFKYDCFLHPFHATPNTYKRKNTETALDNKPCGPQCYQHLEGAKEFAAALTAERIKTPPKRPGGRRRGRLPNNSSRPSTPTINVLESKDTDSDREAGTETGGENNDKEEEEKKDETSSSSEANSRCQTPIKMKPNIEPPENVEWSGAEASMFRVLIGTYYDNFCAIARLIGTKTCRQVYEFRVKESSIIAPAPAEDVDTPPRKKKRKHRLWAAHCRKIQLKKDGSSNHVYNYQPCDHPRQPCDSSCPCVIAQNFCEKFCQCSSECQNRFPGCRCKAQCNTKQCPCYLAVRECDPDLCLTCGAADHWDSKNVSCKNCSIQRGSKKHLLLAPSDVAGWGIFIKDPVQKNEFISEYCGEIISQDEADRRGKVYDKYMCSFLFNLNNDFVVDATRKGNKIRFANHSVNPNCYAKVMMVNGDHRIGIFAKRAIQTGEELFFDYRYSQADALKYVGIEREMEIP
T1 sequence (O75530 whole entry partner): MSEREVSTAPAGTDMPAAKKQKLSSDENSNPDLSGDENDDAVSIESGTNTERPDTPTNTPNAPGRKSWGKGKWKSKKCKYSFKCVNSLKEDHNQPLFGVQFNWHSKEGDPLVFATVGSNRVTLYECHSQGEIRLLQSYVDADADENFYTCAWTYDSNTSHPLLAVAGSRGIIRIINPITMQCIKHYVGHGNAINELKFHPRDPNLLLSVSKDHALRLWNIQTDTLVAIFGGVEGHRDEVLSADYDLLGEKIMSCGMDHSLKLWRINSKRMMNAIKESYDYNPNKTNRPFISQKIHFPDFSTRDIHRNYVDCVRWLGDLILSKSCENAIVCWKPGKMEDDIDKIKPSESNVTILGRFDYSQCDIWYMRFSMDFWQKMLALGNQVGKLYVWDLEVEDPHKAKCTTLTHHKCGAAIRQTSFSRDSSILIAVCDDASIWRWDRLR
T1 sequence (Q15022 whole entry partner): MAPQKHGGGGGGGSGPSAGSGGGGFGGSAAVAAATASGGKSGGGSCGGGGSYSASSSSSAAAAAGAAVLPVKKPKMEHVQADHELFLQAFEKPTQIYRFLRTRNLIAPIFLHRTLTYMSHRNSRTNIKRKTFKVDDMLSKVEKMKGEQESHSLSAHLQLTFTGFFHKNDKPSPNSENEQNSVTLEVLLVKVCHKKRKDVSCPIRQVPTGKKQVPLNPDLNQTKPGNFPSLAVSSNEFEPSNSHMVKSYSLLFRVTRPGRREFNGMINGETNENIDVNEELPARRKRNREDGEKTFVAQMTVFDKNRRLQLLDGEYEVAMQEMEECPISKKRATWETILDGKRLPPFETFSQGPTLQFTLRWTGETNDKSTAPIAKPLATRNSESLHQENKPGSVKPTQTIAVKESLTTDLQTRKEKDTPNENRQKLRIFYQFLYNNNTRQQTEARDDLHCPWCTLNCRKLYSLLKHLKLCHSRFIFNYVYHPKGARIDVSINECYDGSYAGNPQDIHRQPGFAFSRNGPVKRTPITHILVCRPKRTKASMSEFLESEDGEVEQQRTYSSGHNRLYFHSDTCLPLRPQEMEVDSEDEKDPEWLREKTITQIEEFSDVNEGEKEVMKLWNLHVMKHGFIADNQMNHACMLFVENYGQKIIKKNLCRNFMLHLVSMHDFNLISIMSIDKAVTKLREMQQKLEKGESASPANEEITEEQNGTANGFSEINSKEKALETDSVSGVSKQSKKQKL
Description for HDAC4: For the detection of the effect of the drugs on enzyme activity of EZH2 and HDAC of in-vivo tumors, the tumors were separately excised after 6 h of medication, total proteins and nucleoproteins were extracted separately to detect and analyze the activity of the enzyme.
(2) 50 μl of diluted sample solution was added into each reaction well, the plate was sealed with a plate-sealing film and reacted at room temperature for 30 min;
(3) the plate-sealing film was carefully peeled off, the liquid was removed, dried, 150 μl of washing liquid was added into each well, stood for 30 s, then the liquid was removed, repeated twice, and dried;
(4) 2 μl of HDAC enzyme or tumor tissue nuclear extracts was respectively uniformly mixed with 28 μl of diluted sample solution, added into the wells, the plate was sealed with the plate-sealing film and reacted at 37° C. for 60 min;
(5) the plate was washed for three times, wherein the operation was the same as that in (3); and a diluted antibody capture working solution was added into each reaction well according to 50 μl/well and reacted on a shaking bed at room temperature for 60 min;
(6) the plate was washed for four times, wherein the operation was the same as that in (3);
(7) a diluted antibody detection working solution was added into each reaction well according to 50 μl/well and reacted at room temperature for 30 min;
(8) the plate was washed for five times, wherein the operation was the same as that in (3);
a color developing agent was added according to 100 μl/well, and performed dark development for 2-10 min;
(9) 50 μl of stop solution was added into each well for stopping the reaction when the color in the well with a standard product turned blue with medium intensity, the color immediately turned yellow from blue after the addition;
(10) the light absorbance (OD value) of each well was measured in sequence at the wavelength of 450 nm; wherein the measurement should be performed within 15 min after addition of the stop solution; and

Regarding `CCNC(=O)CC[C@H](N)C(=O)OC` [Compound IIa, theanine methyl ester], the IC50 stood at 600 µM in [1] and 280 µM in assay [3]. In addition, the values for the inhibition in vivo at 60 mg/kg in assay [2] and in assay [4] were 33.4% and 38.7%, respectively. In addition, the inhibition in vivo at 90 mg/kg in assay [2] worked out at 37.7%; in assay [4] it was 38.7%.

For the compound `CCNC(=O)CC[C@@H](NC(=O)c1cc2cc(Cl)ccc2oc1=O)C(=O)OCC` [Compound Ic, (R)-2-(6-CI-2-oxo-2H-benzopyran-3-carboxamido)-5-ethylamino-5-oxo-pentanoic acid ethyl ester], the IC50 is 89 µM in [1]; less than 65 µM in the assay on K-Ras; less than 250 µM with Dvl-1; less than 100 µM in the assay with NF-κB; 54 µM in assay [3]; less than 100 µM with Nuclear β-catenin. In addition, the “decrease of HDAC4 enzyme activity/inhibition rate” value in the assay with HDAC4 (A549 tumor grown in vivo) was 73%*(A549)-; in the assay on HDAC4 (MCF7 tumor grown in vivo) it was 63%*(MCF7); with HDAC4 (MDA-MB231 tumor grown in vivo), 65%*(MDA-MB231); in the assay with HDAC4 (SMMC7721 tumor grown in vivo) it was 67%*(SMMC-7721);. The inhibition in vivo at 60 mg/kg turned out to be 56.5% in assay [2] and 53.7% in assay [4]. Moreover, the inhibition in vivo at 90 mg/kg was 66.7% in [2] and 65.8% in [4]. Moreover, the “decrease of EZH2 enzyme activity/inhibition rate” value on EZH2 (A549 tumor grown in vivo) is listed as 61%*(A549)-; at EZH2 (MCF7 tumor grown in vivo) it was 56%*(MCF7); at EZH2 (MDA-MB231 tumor grown in vivo), 58%*(MDA-MB231); at EZH2 (SMMC7721 tumor grown in vivo), 59%*(SMMC7721);.

Turning to `CCNC(=O)CC[C@@H](NC(=O)c1cc2cc(Br)cc(Br)c2oc1=O)C(=O)OCC` [Compound Ih, (R)-2-(6,8-dibromo-2-oxo-2H-benzopyran-3-carboxamido)-5-ethylamino-5-oxo-pentanoic ethyl ester], the IC50 in assay [1] is 128 µM; with K-Ras it was less than 65 µM; in the assay with Dvl-1, less than 250 µM; in the assay with NF-κB, less than 100 µM; in assay [3], 78 µM; in the assay with Nuclear β-catenin it was less than 100 µM. Moreover, the “decrease of HDAC4 enzyme activity/inhibition rate” value with HDAC4 (A549 tumor grown in vivo) is on record as 59%*(A549)-; with HDAC4 (MCF7 tumor grown in vivo), 66%*(MCF7); in the assay with HDAC4 (MDA-MB231 tumor grown in vivo), 64%*(MDA-MB231); with HDAC4 (SMMC7721 tumor grown in vivo), 62%*(SMMC7721);. For the same compound, the results for the inhibition in vivo at 60 mg/kg in assay [2] and in [4] were 51.3% and 62.9%, respectively. Also, the inhibition in vivo at 90 mg/kg in assay [2] came to 67.3%; in [4], 72.6%. Further, the “decrease of EZH2 enzyme activity/inhibition rate” value on EZH2 (A549 tumor grown in vivo) was 55%*(A549)-; at EZH2 (MCF7 tumor grown in vivo), 61%*(MCF7); at EZH2 (MDA-MB231 tumor grown in vivo) it was 59%*(MDA-MB231); on EZH2 (SMMC7721 tumor grown in vivo), 56%*(SMMC7721);.

Turning to `CCNC(=O)CCC(NC(=O)c1cc2cc(F)ccc2oc1=O)C(=O)OCC` (stereo in doubt) [Compound Ie, (R)-2-(6-F-2-oxo-2H-benzopyran-3-carboxamido)-5-ethylamino-5-oxo-pentanoic acid ethyl ester], the IC50 in assay [1] was 260 µM; in the assay on K-Ras, less than 60 µM; with Dvl-1, less than 150 µM; with NF-κB, less than 60 µM; in [3], 72 µM; with Nuclear β-catenin, less than 65 µM. The “decrease of HDAC4 enzyme activity/inhibition rate” value was 72%*(A549)- with HDAC4 (A549 tumor grown in vivo), 67%*(MCF7) in the assay with HDAC4 (MCF7 tumor grown in vivo), 62%*(MDA-MB231) with HDAC4 (MDA-MB231 tumor grown in vivo) and 65%*(SMMC7721); in the assay with HDAC4 (SMMC7721 tumor grown in vivo). The inhibition in vivo at 60 mg/kg in assay [2] was found to be 56.6%; in assay [4], 60.7%. For the same compound, the inhibition in vivo at 90 mg/kg in assay [2] was found to be 64.6%; in [4], 70.5%. Besides, the “decrease of EZH2 enzyme activity/inhibition rate” value on EZH2 (A549 tumor grown in vivo) was 58%*(A549)-; at EZH2 (MCF7 tumor grown in vivo), 62%*(MCF7); on EZH2 (MDA-MB231 tumor grown in vivo), 59%*(MDA-MB231); at EZH2 (SMMC7721 tumor grown in vivo), 56%*(SMMC7721);.

As for `CCNC(=O)CC[C@H](N)C(=O)OCC` [Compound IIb, theanine ethyl ester], the IC50 in [1] amounted to 300 µM; in [3] it was 400 µM. Moreover, the inhibition in vivo at 60 mg/kg in [2] is 32.3%; in assay [4], 41.7%. Also, the inhibition in vivo at 90 mg/kg stood at 34.8% in assay [2] and 41.7% in assay [4].
